Measured values taken from patent publication US20250345390A1, “COMBINATION THERAPIES” (Gilead Sciences, Inc., priority 2024, published 2025).

System: HDV
Test: HBV/HDV co-infected viral spread assay in primary human hepatocytes (PHH)
Format: cell-based, hepatitis D virus (HDV) in primary human hepatocytes
Conditions: primary infection; lonafarnib 5 μM to 6.9 nM for 9 days; BLV 0.8 nM where present
Method: Cryopreserved PHH were thawed and cells were recovered by centrifugation at 100×g (Beckman Coulter, Allegra X-14R) through cryopreserved hepatocyte recovery medium (Thermo Fisher Scientific; CM7500) and plated in collagen coated 96-well plates (Thermo Fisher Scientific; CM1096) at a density of 70,000 live cells per well. Cells were plated in William's E medium (Thermo Fisher Scientific; A1217601) supplemented with 3.6% hepatocyte thawing and plating supplement (Thermo Fisher Scientific, A15563), 5% fetal bovine serum (Thermo Fisher Scientific; 16000-036), 1 μM dexamethasone (Thermo Fisher Scientific, A15563), and 0.2% Torpedo antibiotic mix (BioreclamationIVT; Z990008). […]
Vehicle and compound containing wells were normalized such that the final concentration of DMSO was 1.5% (v/v). The medium was collected and extracellular HBsAg was measured by an electrochemiluminescence assay (MSD) according to the manufacturer's instructions (Meso Scale Diagnostics, Rockville, MD). […] Levels of HDV RNA were calculated as fold change relative to DMSO treated sample using the 2-ΔΔCt method (Livak K J, Schmittgen T D. Analysis of relative gene expression data using real-time quantitative PCR and the 2(-Delta Delta C(T)) Method. Methods 2001).

NC(=O)N1CCC(CC(=O)N2CCC([C@H]3c4ncc(Br)cc4CCc4cc(Cl)cc(Br)c43)CC2)CC1 [lonafarnib, (R)-4-(2-(4-(3,10-dibromo-8-chloro-6,11-dihydro-5H-benzo[5,6]cyclohepta[1,2-b]pyridin-11-yl)piperidin-1-yl)-2-oxoethyl)piperidine-1-carboxamide]
intracellular HDV RNA (qRT-PCR, fold change relative to DMSO): induced dose-dependent intracellular accumulation of HDV RNA
